Assay results from the RepoRT retention time repository (doi:10.1016/j.chroma.2019.01.023).

Assay: HILIC, Merck SeQuant ZIC-pHILIC, 150 × 2.1 mm, 5 µm, 40 °C, 0.3 mL/min, estimated dead time 1.1 min; A: acetonitrile; B: water + 2.8 mM ammonium formate, pH 9; gradient (min/%B) 0/5 1/5 10/51 13/51 13.1/5 20/5
Conditions: stereoisomer not certain

Compound	LC retention time [min]
O=C(O)C(O)Cc1ccc(O)cc1 (centres undefined) [HYDROXYPHENYLLACTATE]	6.83
Nc1ccccc1O [2-AMINOPHENOL]	7.38
O=C(O)c1ccc2ccccc2n1 [2-QUINOLINECARBOXYLATE]	5.63
O=Cc1ccc(O)cc1 [4-HYDROXYBENZALDEHYDE]	1.43
Nc1cc(C(=O)O)ccc1[O-] [3-AMINO-4-HYDROXYBENZOATE]	7.39
Nc1ccc(C(=O)[O-])cc1 [4-AMINOBENZOATE]	4.05
CC(CCC(=O)O)C(=O)O (centres undefined) [2-METHYLGLUTARATE]	7.37
Nc1ccn(C2OC(CO)C(O)C2O)c(=O)n1 (centres undefined) [CYTIDINE]	7.29
O=C([O-])CCCCC(=O)[O-] [ADIPATE]	8.71
CSCCC(O)C(=O)O (centres undefined) [2-HYDROXY-4-(METHYLTHIO)BUTANOATE]	4.59
Nc1c([O-])cccc1C(=O)O [3-HYDROXYANTHRANILATE]	6.24
O=c1cccc(O)[nH]1 [2,6-DIHYDROXYPYRIDINE]	6.67
Nc1ncnc2c1ncn2C1OC(CO)C(O)C1O (centres undefined) [ADENOSINE]	5.92
Cc1cc2nc3c(=O)[nH]c(=O)nc-3n(CC(O)C(O)C(O)COP(=O)(O)OP(=O)(O)OCC3OC(n4cnc5c(N)ncnc54)C(O)C3O)c2cc1C (centres undefined) [FAD]	8.07
CC(CCC(=O)NCC(=O)O)C1CCC2C3C(O)CC4CC(O)CCC4(C)C3CC(O)C12C (centres undefined) [GLYCOCHOLATE]	5.5
O=C([O-])CCc1ccccc1O [3-(2-HYDROXYPHENYL)PROPANOATE]	2.12
CCCCCCCCCC(=O)OCC(COP(=O)([O-])OCC[N+](C)(C)C)OC(=O)CCCCCCCCC (centres undefined) [DIDECANOYL-GLYCEROPHOSPHOCHOLINE]	1.65
COc1cc(CC(=O)O)ccc1O [HOMOVANILLATE]	4.78
Nc1ncnc2c1ncn2C1OC(CO)C2OP(=O)(O)OC21 (centres undefined) [ADENOSINE 2',3'-CYCLIC PHOSPHATE]	6.94
O=C(O)Cc1cc(O)ccc1O [HOMOGENTISATE]	6.88
O=C(O)CCCCCCCCCO [10-HYDROXYDECANOATE]	1.44

Other lines, results leading:

LC retention time [min]	Compound
6.57	Nc1nc2nccnc2c(=O)[nH]1 [PTERIN]
1.93	Cn1cnc2c1c(=O)[nH]c(=O)n2C [THEOBROMINE]
7.17	CC(=O)NCC(=O)O [N-ACETYLGLYCINE]
7.98	NC(=O)NCCC(=O)O [UREIDOPROPIONATE]
7.27	CC(CC(=O)O)CC(=O)O [METHYGLUTARATE]
5.2	O=C(O)CCCCCCC(=O)O [SUBERATE]
5.76	O=C([O-])c1cccnc1 [NICOTINATE]
7.52	CCCC(N)C(=O)O (centres undefined) [NORVALINE]
6.81	C[Se]CCC(N)C(=O)O (centres undefined) [SELENOMETHIONINE]
8.3	NC(CCOC(=O)CCC(=O)O)C(=O)O (centres undefined) [O-SUCCINYL-HOMOSERINE]
7.53	CSCCC(N)C(=O)O (centres undefined) [METHIONINE]
9.39	O=C(O)CC(O)C(=O)O (centres undefined) [MALATE]
2.6	Cc1ncc(CO)c(C=O)c1O [PYRIDOXAL]
7.04	CCCCC(N)C(=O)O (centres undefined) [NORLEUCINE]
8.13	O=c1[nH]c(=O)c2[nH]c(=O)[nH]c2[nH]1 [URATE]
8.84	CC(=O)NC(CC(=O)O)C(=O)O (centres undefined) [N-ACETYLASPARTATE]
3.4	c1ncc2[nH]cnc2n1 [PURINE]
7.02	CC(C)CC(N)C(=O)O (centres undefined) [LEUCINE]
4.25	O=c1cc[nH]c(=O)[nH]1 [URACIL]
7.08	O=C(O)C=Cc1cnc[nH]1 [UROCANATE]
6.53	NC(=O)C1CCCN1C(=O)C(Cc1cnc[nH]1)NC(=O)C1CCC(=O)N1 (centres undefined) [THYROTROPIN RELEASING HORMONE]
6.07	CC(O)(CCO)CC(=O)[O-] (centres undefined) [MEVALONATE]

Assay: RP, Phenomenex Kinetex C18, 150 × 2.1 mm, 1.7 µm, 30 °C, 0.3 mL/min, estimated dead time 1.1 min; A: water + 0.1% formic acid, pH 3; B: acetonitrile + 0.1% formic acid, pH 3; gradient (min/%B) 0/2 14/100 17/100 17.1/2 25/2
Conditions: stereoisomer not certain

Compound	LC retention time [min]
CC(=O)OCC(=O)C1CCC2C3CCC4=CC(=O)CCC4(C)C3CCC12C (centres undefined) [DEOXYCORTICOSTERONE ACETATE]	11
CCCCCCCCCCCCCC(=O)OCC(O)CO (centres undefined) [GLYCEROL-MYRISTATE]	13.3
O=CCc1c[nH]c2ccccc12 [INDOLEACETALDEHYDE]	4.83
O=C(O)c1ccc2ccccc2n1 [2-QUINOLINECARBOXYLATE]	4.39
COC(=O)Cc1c[nH]c2ccccc12 [INDOLE-3-METHYL ACETATE]	8.33
COc1cc(C(O)CO)ccc1O (centres undefined) [4-HYDROXY-3-METHOXYPHENYLGLYCOL]	3.21
Nc1ccc(C(=O)[O-])cc1 [4-AMINOBENZOATE]	3.83
O=C(O)c1ccc([O-])cc1 [4-HYDROXYBENZOATE]	4.66
CC(CCC(=O)O)C1CCC2C3CCC4CC(O)CCC4(C)C3CC(O)C12C (centres undefined) [DEOXYCHOLATE]	10.8
Cc1cc2nc[nH]c2cc1C [5,6 DIMETHYLBENZIMIDAZOLE]	4.83
CCOC(=O)Cc1c[nH]c2ccccc12 [ETHYL 3-INDOLEACETATE]	9.17
Cc1cc2nc3c(=O)[nH]c(=O)nc-3n(CC(O)C(O)C(O)COP(=O)(O)OP(=O)(O)OCC3OC(n4cnc5c(N)ncnc54)C(O)C3O)c2cc1C (centres undefined) [FAD]	4.21
CC(C)=CCCC(C)C1CCC2C3CC=C4CC(O)CCC4(C)C3CCC12C (centres undefined) [DESMOSTEROL]	15.4
CC(CCC(=O)NCC(=O)O)C1CCC2C3C(O)CC4CC(O)CCC4(C)C3CC(O)C12C (centres undefined) [GLYCOCHOLATE]	8.13
O=C([O-])Cc1c[nH]c2ccccc12 [INDOLE-3-ACETATE]	6.54
NCCc1c[nH]c2ccccc12 [TRYPTAMINE]	5.12
Cn1c(=O)c2c(ncn2C)n(C)c1=O [CAFFEINE]	4.68
CC12CCC3c4ccc(O)cc4CCC3C1CCC2O (stereo not drawn) [ESTRADIOL-17ALPHA]	9.34

Results, then the compound that gave them:

LC retention time [min]	Compound
3.68	Cn1cnc2c1c(=O)[nH]c(=O)n2C [THEOBROMINE]
11.2	CC(C=CC1=C(C)CCCC1(C)C)=CC=CC(C)=CC(=O)[O-] [RETINOATE]
1.76	C[Se]CCC(N)C(=O)O (centres undefined) [SELENOMETHIONINE]
11.9	CC(C)=CCCC(C)=CCCC(C)=CCCC(C)=CCCC(C)=CCCC(C)=CCCC(C)=CCC1=C(C)C(=O)c2ccccc2C1=O [MENAQUINONE]
6.87	NC(=O)CCCCC1CCSS1 (centres undefined) [LIPOAMIDE]
2.8	O=C(O)CC(O)C(=O)O (centres undefined) [MALATE]
11.6	CCCCCCCCCCCCCC(=O)O [MYRISTATE]
9.47	O=CCc1ccccc1 [PHENYLACETALDEHYDE]
1.71	O=C1CCC(C(=O)O)N1 (centres undefined) [PYROGLUTAMATE]
11.8	CCCCCCCCCCCCCCCC(=O)O [PALMITATE]

Assay: as above
Conditions: stereoisomer not certain
Remark: another data set of the same source

Compound	LC retention time [min]
O=C(O)C(O)Cc1ccc(O)cc1 (centres undefined) [HYDROXYPHENYLLACTATE]	3.97
Nc1ccccc1O [2-AMINOPHENOL]	1.52
O=Cc1ccc(O)cc1 [4-HYDROXYBENZALDEHYDE]	5.11
Nc1cc(C(=O)O)ccc1[O-] [3-AMINO-4-HYDROXYBENZOATE]	1.52

Now from value to compound:

LC retention time [min]	Compound
2.05	Nc1nc2nccnc2c(=O)[nH]1 [PTERIN]
1.41	CC(=O)NCC(=O)O [N-ACETYLGLYCINE]
8.2	CC(C=CC1=C(C)CCCC1(C)C)=CC=CC(C)=CC(=O)[O-] [RETINOATE]
1.4	NC(=O)NCCC(=O)O [UREIDOPROPIONATE]
